According to patent US20030129629A1, “Methods and compositions for the identification, assessment, prevention, and therapy of human cancers” (Millennium Pharmaceuticals, Inc., priority 2000, published 2003):
Where “and” joins values, the source holds several entries; their conditions need not be identical. Equal values may be shown once. Read-outs that look alike come from different tables or passages of the source.

System: 60 cancer cell lines (NCI 60 cancer cell line series)
Test: NCI-DTP in vitro cancer screen, sulforhodamine B (SRB) growth inhibition, 48 hour exposure
Format: cell-based, human
In short: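 NCI-DTP panel of 60 cancer cell lines plated day 0 at line-specific densities, exposed from day 1 to compound at 5 ten-fold-spaced doses in duplicate wells. After 48 h, cell mass stained with sulforhodamine B; −log GI50 derived from dose–response curves, averaged, and classed Low, Medium or High sensitivity.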

N[C@@H](Cc1ccc(N(CCCl)CCCl)cc1)C(=O)O [Melphalan]
classification of cell line as Low(1), Medium(2), High(3) sensitivity to compound: 2
classification of cell line as Low(1), Medium(2), High(3) sensitivity to compound (Breast BT-549 CL5013): 2
classification of cell line as Low(1), Medium(2), High(3) sensitivity to compound (Breast HS-578T CL5006): 2
classification of cell line as Low(1), Medium(2), High(3) sensitivity to compound (Breast MCF7(I) CL5001): 3
classification of cell line as Low(1), Medium(2), High(3) sensitivity to compound (Breast MCF7/ADRr CL5002): 2
classification of cell line as Low(1), Medium(2), High(3) sensitivity to compound (Breast MDA-MB-231 CL5005): 2
classification of cell line as Low(1), Medium(2), High(3) sensitivity to compound (Breast MDA-MB-435 CL5011): 2
classification of cell line as Low(1), Medium(2), High(3) sensitivity to compound (Breast MDA-N CL5012): 2
classification of cell line as Low(1), Medium(2), High(3) sensitivity to compound (Breast T-47D CL5014): 2
classification of cell line as Low(1), Medium(2), High(3) sensitivity to compound (Colon COLO-250 CL4010): 2
classification of cell line as Low(1), Medium(2), High(3) sensitivity to compound (Colon HCC-2998 CL4002): 2
classification of cell line as Low(1), Medium(2), High(3) sensitivity to compound (Colon HCT-15 CL4015): 2
classification of cell line as Low(1), Medium(2), High(3) sensitivity to compound (Colon HCT-116 CL4003): 2
classification of cell line as Low(1), Medium(2), High(3) sensitivity to compound (Colon HT29(I) CL4001): 1
classification of cell line as Low(1), Medium(2), High(3) sensitivity to compound (Colon KM12 CL4017): 1
classification of cell line as Low(1), Medium(2), High(3) sensitivity to compound (Colon SW-620 CL4009): 2
classification of cell line as Low(1), Medium(2), High(3) sensitivity to compound (Leukemia CCRF-CEM(I) CL7003): 3
classification of cell line as Low(1), Medium(2), High(3) sensitivity to compound (Leukemia HL-60(I) CL7008): 3
classification of cell line as Low(1), Medium(2), High(3) sensitivity to compound (Leukemia K562(I) CL7005): 2
classification of cell line as Low(1), Medium(2), High(3) sensitivity to compound (Leukemia MOLT-4 CL7006): 3
classification of cell line as Low(1), Medium(2), High(3) sensitivity to compound (Leukemia RPMI-8226(I) CL7010): 2
classification of cell line as Low(1), Medium(2), High(3) sensitivity to compound (Leukemia SR CL7019): 3
classification of cell line as Low(1), Medium(2), High(3) sensitivity to compound (Melanoma LOX IMVI CL10001): 2
classification of cell line as Low(1), Medium(2), High(3) sensitivity to compound (Melanoma M14 CL10014): 2
classification of cell line as Low(1), Medium(2), High(3) sensitivity to compound (Melanoma MALME-3M CL10002): 2
classification of cell line as Low(1), Medium(2), High(3) sensitivity to compound (Melanoma SK-MEL-2 CL10005): 2
classification of cell line as Low(1), Medium(2), High(3) sensitivity to compound (Melanoma SK-MEL-5 CL10007): 2
classification of cell line as Low(1), Medium(2), High(3) sensitivity to compound (Melanoma SK-MEL-28 CL10008): 2
classification of cell line as Low(1), Medium(2), High(3) sensitivity to compound (Melanoma UACC-62 CL10020): 3
classification of cell line as Low(1), Medium(2), High(3) sensitivity to compound (Melanoma UACC-257 CL10021): 2
classification of cell line as Low(1), Medium(2), High(3) sensitivity to compound (NSCLC A549/ATCC CL1004): 2
classification of cell line as Low(1), Medium(2), High(3) sensitivity to compound (NSCLC EKVX CL1008): 2
classification of cell line as Low(1), Medium(2), High(3) sensitivity to compound (NSCLC HOP-62 CL1026): 2
classification of cell line as Low(1), Medium(2), High(3) sensitivity to compound (NSCLC HOP-92 CL1029): 2
sensitivity classification Low(1)/Medium(2)/High(3) (NSCLC NCI-H23(I) CL1001): 2
classification of cell line as Low(1), Medium(2), High(3) sensitivity to compound (NSCLC NCI-H226 CL1013): 2
sensitivity classification Low(1)/Medium(2)/High(3) (NSCLC NCI-H332M CL1017): 1
sensitivity classification Low(1)/Medium(2)/High(3) (NSCLC NCI-H460 CL1021): 3
sensitivity classification Low(1)/Medium(2)/High(3) (NSCLC NCI-H522 CL1003): 2
sensitivity classification Low(1)/Medium(2)/High(3) (Ovarian IGROV1 CL6010): 2
sensitivity classification Low(1)/Medium(2)/High(3) (Ovarian OVCAR-3 CL6001): 2
sensitivity classification Low(1)/Medium(2)/High(3) (Ovarian OVCAR-4 CL6002): 2
sensitivity classification Low(1)/Medium(2)/High(3) (Ovarian OVCAR-5 CL6003): 2
sensitivity classification Low(1)/Medium(2)/High(3) (Ovarian OVCAR-8 CL6005): 2
sensitivity classification Low(1)/Medium(2)/High(3) (Ovarian SK-OV-3 CL6011): 2
sensitivity classification Low(1)/Medium(2)/High(3) (Prostate DU-145 CL11003): 2
sensitivity classification Low(1)/Medium(2)/High(3) (Prostate PC-3(I) CL11001): 2
sensitivity classification Low(1)/Medium(2)/High(3) (Renal 786-0 CL9018): 2
sensitivity classification Low(1)/Medium(2)/High(3) (Renal A498 CL9013): 1
sensitivity classification Low(1)/Medium(2)/High(3) (Renal ACHN CL9023): 3
sensitivity classification Low(1)/Medium(2)/High(3) (Renal CAKI-1 CL9015): 3
sensitivity classification Low(1)/Medium(2)/High(3) (Renal RXF-393 CL9016): 2
sensitivity classification Low(1)/Medium(2)/High(3) (Renal SN12C CL9008): 2
sensitivity classification Low(1)/Medium(2)/High(3) (Renal TK10 CL9024): 1
sensitivity classification Low(1)/Medium(2)/High(3) (Renal UO-31 CL9004): 2

Sc1ncnc2nc[nH]c12 [6-mercaptopurine]
classification of cell line as Low(1), Medium(2), High(3) sensitivity to compound (Breast BT-549 CL5013): 1
classification of cell line as Low(1), Medium(2), High(3) sensitivity to compound (Breast HS-578T CL5006): 1
classification of cell line as Low(1), Medium(2), High(3) sensitivity to compound (Breast MCF7(I) CL5001): 2
classification of cell line as Low(1), Medium(2), High(3) sensitivity to compound (Breast MCF7/ADRr CL5002): 2
classification of cell line as Low(1), Medium(2), High(3) sensitivity to compound (Breast MDA-MB-231 CL5005): 1
classification of cell line as Low(1), Medium(2), High(3) sensitivity to compound (Breast MDA-MB-435 CL5011): 2
classification of cell line as Low(1), Medium(2), High(3) sensitivity to compound (Breast MDA-N CL5012): 2
classification of cell line as Low(1), Medium(2), High(3) sensitivity to compound (Breast T-47D CL5014): 2
classification of cell line as Low(1), Medium(2), High(3) sensitivity to compound (CNS SF-268 CL12014): 2
classification of cell line as Low(1), Medium(2), High(3) sensitivity to compound (CNS SF-295 CL12015): 2
classification of cell line as Low(1), Medium(2), High(3) sensitivity to compound (CNS SF-539 CL12016): 2
classification of cell line as Low(1), Medium(2), High(3) sensitivity to compound (CNS SNB-19 CL12002): 1
classification of cell line as Low(1), Medium(2), High(3) sensitivity to compound (CNS SNB-75(I) CL12005): 2
classification of cell line as Low(1), Medium(2), High(3) sensitivity to compound (CNS U251(I) CL12009): 2
classification of cell line as Low(1), Medium(2), High(3) sensitivity to compound (Colon COLO-250 CL4010): 2
classification of cell line as Low(1), Medium(2), High(3) sensitivity to compound (Colon HCC-2998 CL4002): 2
classification of cell line as Low(1), Medium(2), High(3) sensitivity to compound (Colon HCT-15 CL4015): 2
classification of cell line as Low(1), Medium(2), High(3) sensitivity to compound (Colon HCT-116 CL4003): 2
classification of cell line as Low(1), Medium(2), High(3) sensitivity to compound (Colon HT29(I) CL4001): 2
classification of cell line as Low(1), Medium(2), High(3) sensitivity to compound (Colon KM12 CL4017): 2
classification of cell line as Low(1), Medium(2), High(3) sensitivity to compound (Colon SW-620 CL4009): 2
classification of cell line as Low(1), Medium(2), High(3) sensitivity to compound (Leukemia CCRF-CEM(I) CL7003): 3
classification of cell line as Low(1), Medium(2), High(3) sensitivity to compound (Leukemia HL-60(I) CL7008): 2
classification of cell line as Low(1), Medium(2), High(3) sensitivity to compound (Leukemia K562(I) CL7005): 3
classification of cell line as Low(1), Medium(2), High(3) sensitivity to compound (Leukemia MOLT-4 CL7006): 2
classification of cell line as Low(1), Medium(2), High(3) sensitivity to compound (Leukemia RPMI-8226(I) CL7010): 2
classification of cell line as Low(1), Medium(2), High(3) sensitivity to compound (Leukemia SR CL7019): 3
classification of cell line as Low(1), Medium(2), High(3) sensitivity to compound (Melanoma LOX IMVI CL10001): 3
classification of cell line as Low(1), Medium(2), High(3) sensitivity to compound (Melanoma M14 CL10014): 3
classification of cell line as Low(1), Medium(2), High(3) sensitivity to compound (Melanoma MALME-3M CL10002): 2
classification of cell line as Low(1), Medium(2), High(3) sensitivity to compound (Melanoma SK-MEL-2 CL10005): 2
classification of cell line as Low(1), Medium(2), High(3) sensitivity to compound (Melanoma SK-MEL-5 CL10007): 2
classification of cell line as Low(1), Medium(2), High(3) sensitivity to compound (Melanoma SK-MEL-28 CL10008): 1
classification of cell line as Low(1), Medium(2), High(3) sensitivity to compound (Melanoma UACC-62 CL10020): 2
classification of cell line as Low(1), Medium(2), High(3) sensitivity to compound (Melanoma UACC-257 CL10021): 1
classification of cell line as Low(1), Medium(2), High(3) sensitivity to compound (NSCLC A549/ATCC CL1004): 1
classification of cell line as Low(1), Medium(2), High(3) sensitivity to compound (NSCLC EKVX CL1008): 1
classification of cell line as Low(1), Medium(2), High(3) sensitivity to compound (NSCLC HOP-62 CL1026): 2
classification of cell line as Low(1), Medium(2), High(3) sensitivity to compound (NSCLC HOP-92 CL1029): 2
sensitivity classification Low(1)/Medium(2)/High(3) (NSCLC NCI-H23(I) CL1001): 2
classification of cell line as Low(1), Medium(2), High(3) sensitivity to compound (NSCLC NCI-H226 CL1013): 1
sensitivity classification Low(1)/Medium(2)/High(3) (NSCLC NCI-H332M CL1017): 2
sensitivity classification Low(1)/Medium(2)/High(3) (NSCLC NCI-H460 CL1021): 2
sensitivity classification Low(1)/Medium(2)/High(3) (NSCLC NCI-H522 CL1003): 2
sensitivity classification Low(1)/Medium(2)/High(3) (Ovarian IGROV1 CL6010): 2
sensitivity classification Low(1)/Medium(2)/High(3) (Ovarian OVCAR-3 CL6001): 3
sensitivity classification Low(1)/Medium(2)/High(3) (Ovarian OVCAR-4 CL6002): 2
sensitivity classification Low(1)/Medium(2)/High(3) (Ovarian OVCAR-5 CL6003): 2
sensitivity classification Low(1)/Medium(2)/High(3) (Ovarian OVCAR-8 CL6005): 2
sensitivity classification Low(1)/Medium(2)/High(3) (Ovarian SK-OV-3 CL6011): 3
sensitivity classification Low(1)/Medium(2)/High(3) (Prostate DU-145 CL11003): 2
sensitivity classification Low(1)/Medium(2)/High(3) (Prostate PC-3(I) CL11001): 2
sensitivity classification Low(1)/Medium(2)/High(3) (Renal 786-0 CL9018): 2
sensitivity classification Low(1)/Medium(2)/High(3) (Renal A498 CL9013): 1
sensitivity classification Low(1)/Medium(2)/High(3) (Renal ACHN CL9023): 2
sensitivity classification Low(1)/Medium(2)/High(3) (Renal CAKI-1 CL9015): 2
sensitivity classification Low(1)/Medium(2)/High(3) (Renal RXF-393 CL9016): 1
sensitivity classification Low(1)/Medium(2)/High(3) (Renal SN12C CL9008): 1
sensitivity classification Low(1)/Medium(2)/High(3) (Renal TK10 CL9024): 2
sensitivity classification Low(1)/Medium(2)/High(3) (Renal UO-31 CL9004): 2

O=NN(CCCl)C(=O)NCCCl [BCNU]
sensitivity classification Low(1)/Medium(2)/High(3): 2 and 1 and 3

Nc1ccn([C@@H]2O[C@H](CO)[C@@H](O)[C@@H]2O)c(=O)n1 [AraC]
classification of cell line as Low(1), Medium(2), High(3) sensitivity to compound: 3 and 2 and 1
sensitivity classification Low(1)/Medium(2)/High(3): 3 and 2 and 1
